Where “and” joins values, the source holds several entries; their conditions need not be identical. Equal values may be shown once. Read-outs that look alike come from different tables or passages of the source.
Tests used:
[1] = tested on: pressor response to AII; experiment: Assay C: In vivo intragastric pressor assay response for AII antagonists; parameters: species or system rat; settings: intragastric, or intraduodenal for examples listed
Method: Assay C: In Vivo Intragastric Pressor Assay Response for AII Antagonists
Male Sprague-Dawley rats weighing 225-300 grams were anesthetized with methohexital (30 mg/kg, i.p.) and catheters were implanted into the femoral artery and vein. The catheters were tunneled subcutaneously to exit dorsally, posterior to the head and between the scapulae. The catheters were filled with heparin (1000 units/ml of saline). The rats were returned to their cage and allowed regular rat chow and water ad libitum. After full recovery from surgery (3-4 days), rats were placed in Lucite holders and the arterial line was connected to a pressure transducer. Arterial pressure was recorded on a Gould polygraph (mmHg). Angiotensin II was administered as a 30 ng/kg bolus via the venous catheter delivered in a 50 μl volume with a 0.2 ml saline flush. The pressor response in mm Hg was measured by the differer.-:e from pre-injection arterial pressure to the maximum pressure achieved. The AII injection was repeated every 10 minutes until three consecutive injections yielded responses within 4 mmHg of each other. These three responses were then averaged and represented the control response to AII. The test compound was suspended in 0.5% methylcellulose in water and was administered by gavage. The volume administered was 2 ml/kg body weight. The standard dose was 3 mg/kg. Angiotensin II bolus injections were given at 30, 45, 60, 75, 120, 150, and 180 minutes after gavage. The pressor response to AII was measured at each time point. The rats were then returned to their cage for future testing. A minimum of 3 days was allowed between tests. Percent inhibition was calculated for each time point following gavage by the following formula:
[(Control Response—Response at time point)/Control Response]×100.

[2] = tested on: rabbit aortic rings; experiment: Assay B: In vitro vascular smooth muscle response for AII (antagonist activity, pA2); type: cell-based; settings: two values per cell separated by / are separate determinations; for Kb: Oryctolagus cuniculus
Method: Assay B: In Vitro Vascular Smooth Muscle-response for AII
The compounds of the invention were tested for antagonist activity in rabbit aortic rings. Male New Zealand white rabbits (2-2.5 kg) were sacrificed using an overdose of pentobarbital and exsanguinated via the carotid arteries. The thoracic aorta was removed, cleaned of adherent fat and connective tissue and then cut into 3-mm ring segments. The endothelium was removed from the rings by gently sliding a rolled-up piece of filter paper into the vessel lumen. The rings were then mounted in a water-jacketed tissue bath, maintained at 37° C., between moveable and fixed ends of a stainless steel wire with the moveable end attached to an FT03 Grass transducer coupled to a Model 7D Grass Polygraph for recording isometric force responses. The bath was filled with 20 ml of oxygenated (95% oxygen/5% carbon dioxide) Krebs solution of the following composition (mM): 130 NaCl, […], 15 KCl, 1.2 NaH2PO4, 1.2 MgSO4, 2.5 CaCl2, and 11.4 glucose. The preparations were equilibrated for one hour before approximately one gram of passive tension was placed on the rings. Angiotensin II concentration-response curves were then recorded (3×10^−10 to 1×10^−5 M). Each concentration of AII was allowed to elicit its maximal contraction, and then AII was washed out repeatedly for 30 minutes before rechallenging with a higher concentration of AII. Aorta rings were exposed to the test antagonist at […] for 5 minutes before challenging with AII. Adjacent segments of the same aorta ring were used for all concentration-response curves in the presence or absence of the test antagonist. The effectiveness of the test compound was expressed in terms of pA2 values and were calculated according to H. O. Schild [Br. J. Pharmacol, Chemother., 2,189-206 (1947)]. The pA2 value is the concentration of the antagonist which increases the EC50 value for AII by a factor of two. Each test antagonist was evaluated in aorta rings from two rabbits.

[3] = target: angiotensin II AT1 receptor; experiment: Assay A: Angiotensin II binding activity (125I-AII displacement, rat uterine membrane preparation)
[4] = Rattus norvegicus, dose 10 mg/kg
[5] = in vitro vascular smooth muscle response, read-out: Assay B pA2 (converted)
[6] = Rattus norvegicus, dose 30 mg/kg
[7] = Rattus norvegicus, dose 3 mg/kg

| SMILES | Kb [2, 5] [nM] | IC50 [3] [nM] | further results |
| --- | --- | --- | --- |
| CCCCc1nc(CCc2ccccc2)nn1Cc1ccc(-c2ccccc2-c2nnn[nH]2)cc1 [Compound 26] | 0.148 | 3.2 | inhibition at 10 mg/kg [1, 4]: 50%; Assay C Duration ([1]; dose 10 mg/kg): >180 min |
| CCCCc1nc(C(=O)CCC)nn1Cc1ccc(-c2ccccc2-c2nnn[nH]2)cc1 [Compound 30] | 18.6 | 22 | inhibition at 30 mg/kg [1, 6]: 50%; Assay C Duration ([1]; dose 30 mg/kg): >180 min |
| CCCCc1nn(CC(OCC(=O)OCC)c2ccccc2)c(=O)n1Cc1ccc(-c2ccccc2-c2nn[nH]n2)cc1 (stereo not shown) [Compound 107] | 5.01 | 180 |  |
| CCCCc1nc2c(Cl)nnc(Cl)c2n1Cc1ccc(-c2ccccc2-c2nnn[nH]2)cc1 [Compound 110] | 398 | 590 |  |
| CCCCc1nc2c(O)nnc(O)c2n1Cc1ccc(-c2ccccc2-c2nnn[nH]2)cc1 [Compound 111] | 1 |  | inhibition at 30 mg/kg [1, 6]: 87% |
| CCCCc1nc2c(OCC)nnc(OCC)c2n1Cc1ccc(-c2ccccc2-c2nnn[nH]2)cc1 [Compound 112] | 6310 | 2000 |  |
| CCCCc1nc2c(CCC)nnc(O)c2n1Cc1ccc(-c2ccccc2-c2nnn[nH]2)cc1 [Compound 113] | 3.98 |  | inhibition at 10 mg/kg [1, 4]: 60%; Assay C Duration ([1]; dose 10 mg/kg): 180 min |
| CCCCc1nc2cnnc(O)c2n1Cc1ccc(-c2ccccc2-c2nnn[nH]2)cc1 [Compound 115] | 6.31 |  | inhibition at 3 mg/kg [1, 7]: 40%; Assay C Duration ([1]; dose 3 mg/kg): >240 min |
| CCCCc1nc2c(OC(=O)C(C)C)nnc(O)c2n1Cc1ccc(-c2ccccc2-c2nnn[nH]2)cc1 [Compound 119] | 0.617 |  | inhibition at 3 mg/kg [1, 7]: 20%; Assay C Duration ([1]; dose 3 mg/kg): 60 min |
| CCCCc1nc2c(OC(=O)C3CCCCC3)nnc(O)c2n1Cc1ccc(-c2ccccc2-c2nnn[nH]2)cc1 [Compound 120] | 0.891 |  | inhibition at 10 mg/kg [1, 4]: 80%; Assay C Duration ([1]; dose 10 mg/kg): 240 min |
| CCCCc1nc2c(OC(=O)Cc3ccccc3)nnc(O)c2n1Cc1ccc(-c2ccccc2-c2nnn[nH]2)cc1 [Compound 124] |  |  | inhibition at 3 mg/kg [1, 7]: 45%; Assay C Duration ([1]; dose 3 mg/kg): >180 min; Kb ([2]; read-out: Assay B pA2, in vitro vascular smooth muscle response (converted)): 0.38 nM |
| CCCCc1nc(Cc2ccc(-c3ccccc3C(=O)O)cc2)n(CCCC)n1 [Compound 126] | 63.1 | 240 |  |
| CCCCc1nc(Cc2ccc(-c3ccccc3C(=O)O)cc2)nn1CCCC [Compound 127] | 11000 | 12000 |  |
| CCCCc1nc(Cc2ccc(-c3ccccc3-c3nnn[nH]3)cc2)n(CCCC)n1 [Compound 128] | 2.34 | 16 |  |
| CCCCc1nc(Cc2ccc(-c3ccccc3-c3nnn[nH]3)cc2)nn1CCCC [Compound 129] | 5010 | 6700 |  |
| CCCCn1nc(C(F)(F)CCC)nc1Cc1ccc(-c2ccccc2-c2nnn[nH]2)cc1 [Compound 130] | 7.94 | 40 |  |
| CCCCc1cn(CCCC)c(=O)n1Cc1ccc(-c2ccccc2-c2nnn[nH]2)cc1 [Compound 132] | 2.51 | 12 |  |
| CCCCc1c(C)n(CCCC)c(=O)n1Cc1ccc(-c2ccccc2-c2nnn[nH]2)cc1 [Compound 137] | 5.01 | 220 |  |
| CCCc1cn(CCC)c(=O)n1Cc1ccc(-c2ccccc2-c2nnn[nH]2)cc1 [Compound 138] | 6.31 | 130 |  |
| CCCCc1nc(CCCC)n(Cc2ccc(-n3c(Br)ccc3-c3nnn[nH]3)cc2)n1 [Compound 141] | 9.55 | 0.11 |  |
| CCCCc1nc(Cl)c(CO)n1Cc1ccc(-n2cccc2C(=O)O)cc1 [Compound 148] | 1580 |  | inhibition at 3 mg/kg [1, 7]: 92%; Assay C Duration ([1]; dose 3 mg/kg): 20 to 30 min |
| CCCCn1nc(CCc2ccccc2)nc1Cc1ccc(-c2ccccc2-c2nnn[nH]2)nc1 [Compound 151] | 17.4 | 17 |  |
| CCCCn1nc(/C=C/c2cccs2)nc1Cc1ccc(-c2ccccc2-c2nnn[nH]2)nc1 [Compound 154] | 6.46 | 97 |  |

| SMILES | Kb [2, 5] [nM] | IC50 [3] [nM] | further results |
| --- | --- | --- | --- |
| CCCCc1nc(Cc2ccc(-c3ccccc3-c3nnn[nH]3)nc2)n(CC(CC)CC)n1 [Compound 157] | 603 | 530 |  |
| CCCCn1nc(C(=O)CCC)nc1Cc1ccc(-c2ccccc2-c2nnn[nH]2)nc1 [Compound 160] | 13.5 | 64 |  |
| CCCn1nc(C(C)(F)F)nc1Cc1ccc(-c2ccccc2-c2nnn[nH]2)nc1 [Compound 165] | 126 | 410 |  |
| CCCCn1nc(C(C)(F)F)nc1Cc1ccc(-c2ccccc2-c2nnn[nH]2)nc1 [Compound 166] | 26.9 | 160 |  |
| CCCn1nc(C(F)(F)CC)nc1Cc1ccc(-c2ccccc2-c2nnn[nH]2)nc1 [Compound 167] | 83.2 | 370 |  |
| CCCCn1nc(C(F)(F)CC)nc1Cc1ccc(-c2ccccc2-c2nnn[nH]2)nc1 [Compound 168] | 20.4 | 420 |  |
| CCCCn1nc(C(=O)NC)nc1Cc1ccc(-c2ccccc2-c2nnn[nH]2)nc1 [Compound 172] | 70.8 | 70 |  |
| CCCn1nc(C(OC)OC)nc1Cc1ccc(-c2ccccc2-c2nnn[nH]2)nc1 [Compound 174] | 51.3 | 180 |  |
| CCCCn1nc(C(OC(C)C)OC(C)C)nc1Cc1ccc(-c2ccccc2-c2nnn[nH]2)nc1 [Compound 178] | 28.8 | 88 |  |
| CCCCn1nc(C=O)nc1Cc1ccc(-c2ccccc2-c2nnn[nH]2)nc1 [Compound 179] | 214 | 310 |  |
| CCCCc1nc(Cc2ccc(-c3ccccc3-c3nnn[nH]3)nc2)n(CC(C)(C)C)n1 [Compound 184] | 166 | 1100 |  |
| CCCCc1nc(CCCC)n(Cc2ccc(-c3ccccc3-c3nnn[nH]3)cn2)n1 [Compound 239] | 13.2 |  | inhibition at 3 mg/kg [1, 7]: 20% |
| CCCCc1nc(CCCC)n(Cc2ccc(-c3cnccc3-c3nnn[nH]3)cc2)n1 [Compound 244] | 67.6 | 150 |  |
| CCCc1nc(CCC)n(Cc2ccc(-c3ccccc3-c3nnn[nH]3)nc2)n1 [Compound 246] | 34.7 | 72 |  |
| CCCCc1nc(C(=O)NC)nn1Cc1ccc(-c2ccccc2-c2nnn[nH]2)nc1 [Compound 257] | 234 | 160 |  |
| CCCCc1nc(C(=O)NC)n(Cc2ccc(-c3ccccc3-c3nnn[nH]3)nc2)n1 [Compound 258] | 145 | 350 |  |
| CCCCc1nc(-c2ccccc2C)n(Cc2ccc(-c3ccccc3-c3nnn[nH]3)nc2)n1 [Compound 262] | 603 | 530 |  |
| CCCCc1cn(-c2c(C(C)C)cccc2C(C)C)c(=O)n1Cc1ccc(-c2ccccc2-c2nnn[nH]2)cc1 [Compound 277] | 288 | 190 |  |
| CCCCc1cn(-c2c(C)cc(C(C)(C)C)cc2C)c(=O)n1Cc1ccc(-c2ccccc2-c2nnn[nH]2)cc1 [Compound 279] |  | 270 | Assay B pA2 ([2]; in vitro vascular smooth muscle response): 8.06 and 8.25 |
| CCCCc1nc(C)nn1Cc1ccc(-c2ccccc2C(=O)O)cc1 [Compound 280] | 389 | 480 |  |
| CCCCc1nc(Cl)nn1Cc1ccc(-c2ccccc2C(=O)O)cc1 [compound 6] | 282 |  | inhibition at 100 mg/kg ([1]; Rattus norvegicus, dose 100 mg/kg): 90% |
| CCCCc1nc(Cl)nn1Cc1ccc(-c2ccccc2-c2nnn[nH]2)cc1 [compound 7] | 9.77 |  | inhibition at 30 mg/kg [1, 6]: 90% |

Source: US6653306B1, “Epoxy-steroidal aldosterone antagonist and angiotensin II antagonist combination therapy” (G.D. Searle & Co., priority 1995, dated 2003)
